The record followed here is US20140100290A1, “Method of treating a prostate condition” (priority 2012, published 2014).

The subject of assay [1] is cytochrome c release in LNCaP cells. Nature of the assay: Western blot analysis of cytochrome c release in LNCaP cells. Format: cell-based, Human. The following applies: 10 μM and 1000 μM, 48 h. The procedure: Human metastatic prostate cancer cells, LNCaP, were obtained from ATCC (Manassas, Va., USA). Cells were grown in RPMI-1640 medium supplemented with 2mM glutamine, 10% FBS, 100 U/mL penicillin, and 100 μg/mL streptomycin. LNCaP cells were maintained in a humidified atmosphere of 5% CO2 at 37° C. in T-75 flasks and were subcultured when confluent. Experiments were conducted using cells with passage numbers ranging from 5-20.
Western blotting is a widely used analytical technique for detection of specific proteins separated from one another, according to their size, by gel electrophoresis. Application of an electric current induces proteins on the gel to move on to the membrane (nitrocellulose or PVDF) placed next to it. Proteins on the gel get transferred on to the membrane which is subsequently stained with the antibody. Once detected, the target protein will be visualized as a band on a blotting membrane, X-ray film, or an imaging system. […]
After maintaining constant agitation at 4° C. for 30 minutes, lysates were collected in microcentrifuge tubes and centrifuged at 12,000 rpm at 4° C. for 20 minutes. […] Protein concentration was determined using the Pierce® BCA protein assay kit. […] Western blot images are representative of at least 3 independent experiments, while quantification data represent mean±S.E.M. of n>3 experiments.
For orientation: Immunoblotting shows a protein as a band on a membrane.

A further assay relates to PC-3 cells. Nature of the assay: XTT cell proliferation (cell viability) assay in PC-3 cells. The following applies: Homo sapiens, mean±S.E.M., read-out: IC50 (anti-proliferative activity, XTT). Format: cell-based. The method, then: Cell Line and Culture Conditions • Human metastatic, androgen insensitive prostate cancer cells, PC-3, were obtained from ATCC (Manassas, Va., USA). Cells were grown in F-12K medium supplemented with 2 mM glutamine, 10% FBS, 100 U/mL penicillin, and 100 μg/mL streptomycin. PC-3 cells were maintained in a humidified atmosphere of 5% CO2 at 37° C. in T-75 flasks and were subcultured when confluent.
The anti-proliferative effect of carvacrol was assessed in PC-3 cells using the XTT cell proliferation assay. This assay is a colorimetric assay that is used to measure cell growth and drug sensitivity in tumor cell lines by measuring the internal environment of the proliferating cell, which is more reduced than that of non-proliferating cells. In this assay, the second generation tetrazolium dye, XTT (2,3-bis(2-methoxy-4-nitro-5-sulfophenyl)-5-[(phenylamino)-carbonyl]-2H tetrazolium hydroxide), is reduced to a soluble, brightly orange colored formazan derivative. To improve the sensitivity of XTT assay, PMS (N-methyl dibenzopyrazine methyl sulfate), an intermediate electron carrier is used. This color change is accomplished by breaking apart the positively charged quaternary tetrazole ring. An expansion in the number of viable cells results in an increase in the overall activity of mitochondrial dehydrogenases in the sample. […]
PC-3 cells at a density of 10^4 cells/well were seeded into flat-bottom, 96-well microtiter plates (100 μL/well) and allowed to attach and grow for 24 h. […] After incubation, an orange colored formazan product was formed and the absorbance was measured at 475 nm using BioTek microplate reader. […] Cell viability of the drug-treated cells was calculated as a fraction of solvent control and the anti-proliferative activity of carvacrol was expressed in terms of IC50 values. IC50 values were calculated using GraphPad Prism 4 (Graph Pad Software Inc., Calif., USA), and expressed as the means±S.E.M. of n≧3 experiments (each in triplicate).
Background: Formazan colour is commonly taken as a measure of viable cells.

Read-outs that look alike come from different tables or passages of the source.

As for `Cc1ccc(C(C)C)cc1O` [Carvacrol], the “cytochrome c release (Western blot, densitometry vs solvent control)” value in assay [1] is given as “dose-dependent increase in cytochrome c release”. The half-inhibitory concentration (IC50) turned out to be 2250 ± 79.8 µM in the assay on PC-3 cells (24 hr treatment), 1400 ± 98.2 µM in the assay with PC-3 cells (48 hr treatment) and 1010 ± 63.5 µM in the assay on PC-3 cells (96 hr treatment).

The IC50 is the midpoint of a concentration-inhibition curve.
